Source: US7842682B2, “Boronated metal-phthalocyanines, process for their preparation, pharmaceutical compositions comprising them and use thereof” (L. Molteni & C. Dei Fratelli Alitti, priority 2003, dated 2010)
Entries after “also recorded” stand apart in the source; their conditions may differ.

Experiments:
[1] = tested on: B16F1 transplanted pigmented melanoma; experiment: BNCT: rate of tumour growth after thermal neutron irradiation in melanoma bearing mice; type: in vivo, C57/BL6 mice
Description: FIG. 7: Rate of tumour growth as a function of post-irradiation time in C57/BL6 mice bearing a B16F1 transplanted pigmented melanoma which have been intravenously injected with 6.0 mg/kg boronated phthalocyanine prepared according to Example 23, as a DOPC liposomal preparation, and at 24 hours from injection were irradiated by thermal neutrons for 20 and 30 min. The growth profile of the radiosensitized pigmented melanoma is compared with that obtained for untreated control mice.

[2] = Pharmacokinetics and tissue distribution in B16-F1 pigmented melanoma bearing mice; type: in vivo, C57/BL6 mice
Description: Toward this aim, once tumours had reached the volumes of […], the boronated phthalocyanine as DPPC liposomal preparation (0.75 mg/kg) or as a DOPC liposomal preparation (3 mg/kg) was systemically administered. […]

[3] = Photostability (photobleaching) under visible light irradiation, spectrophotometric; type: physicochemical; conditions: irradiated as for FIG. 1; compared with not-boronated (unsubstituted zinc) phthalocyanine
Source text: FIG. 2A: Absorption spectrum and determination of the degraded unsubstituted zinc phthalocyanine, irradiated according to the experimental conditions described above for FIG. 1.
It is known that most phthalocyanines are subjected to a more or less extensive photobleaching under visible light irradiation. It is therefore important to define if the rate constant of this process is too fast, so that the active principle is photodegraded at a high rate, which could negatively interfere with the photosensitization of cells or other substrates. […] Results obtained with a not substituted phthalocyanine are reported. In FIG. 2A as a reference. From comparison of the plots shown in FIGS. 2A and 2B it may be concluded that • 1- the boron substituted molecules prepared according to the present invention are as useful photosensitizers able to absorb red visible light as the unsubstituted ones; • 2- the photobleaching kinetics undergoes only limited changes when the phthalocyanine structure is modified by introduction of boronated groups. […] Assessment of Activity on Biological Substrates

[4] = tested on: melanocytes deriving from murine pigmented melanoma B16-F1; experiment: Photosensitization of B16-F1 melanocytes, survival by Trypan Blue exclusion test; type: cell-based; conditions: 24 hrs incubation, DPPC or DOPC liposomal preparation 7 microM; red light 600-750 nm, 50 mW/cm^2; irradiation times as low as 10 min
Description: Irradiations were performed as described above for FIG. 1.
Melanocytes were incubated (24 hrs) with a DPCC or DOPC liposomal phthalocyanine preparation (7 microM). After incubation, the cells were washed with PBS and irradiated with red visible light (600-750 nm, 50 mW/cm^2). Survival was determined after the photo-treatment (18-24 hrs) by the Trypan Blue exclusion test. Results for delivered phthalocyanine are summarised in FIG. 3A (DPPC liposomes) and in FIG. 3B (DOPC liposomes).

[5] = tested on: B16F1 transplanted pigmented melanoma; experiment: PDT: rate of tumour growth after red light irradiation in melanoma bearing mice; type: in vivo, C57/BL6 mice
Description: The tumour response is most evident if the irradiations are carried out at 3 h after injection of the photosensitizer.

| Substance | tumour necrosis after BNCT ([1]; 6.0 mg/kg i.v. in DOPC liposomes, thermal neutrons at 24 h) | tumour growth after BNCT ([1]; 6.0 mg/kg i.v. in DOPC liposomes, thermal neutrons at 24 h for 20 and 30 min, versus untreated control mice) | amount of phthalocyanine accumulated in the tumour ([1]; 24 h after i.v. injection in DOPC liposomes) | clearance from plasma ([2]; DPPC liposomes 0.75 mg/kg or DOPC liposomes 3 mg/kg, systemically administered) | clearance from liver and spleen ([2]; delivered via DOPC liposomes, after 1 week from injection) | recovery from liver and spleen ([2]; delivered via liposomes) | amount found in the skin (peritumoural tissue) ([2]; mouse, in vivo) | recovery from the kidneys ([2]; mouse, in vivo) | photobleaching [3] | cell survival after photo-treatment [4] | rate of tumour growth after PDT ([5]; 6.0 mg/kg i.v., DOPC liposomal preparation, 670 nm, 200 mW/cm^2, 250 J/cm^2) | tumour response by interval between injection and irradiation ([5]; irradiations carried out at 3 h after injection of the photosensitizer) |
| --- | --- | --- | --- | --- | --- | --- | --- | --- | --- | --- | --- | --- |
| 1,8(11),15(18),22(25)-tetrakis-{[4-(^10B-o-carboran-1-yl)methyl]phenoxy}phthalocyaninate zinc(II) [Example 23] | extensive tumour necrosis | significant delay in tumour growth | sufficient to achieve the BNCT effect | – | – | – | – | – | – | – | – | – |
| 1,8(11),15(18),22(25)-tetrakis-{[4-(^11B-o-carboran-1-yl)methyl]phenoxy}-phthalocyaninate zinc(II) [Example 21] | – | – | – | rapid with no product residue at 24 hrs after the treatment | largely cleared | large recovery; also recorded: accumulated in large amounts | small amounts | Very limited amounts | more extensive photobleaching | almost complete cell mortality | significant delay in the rate of tumour growth | most evident |
